According to patent publication US7632829B2, “Diazepan derivatives” (Hoffmann-La Roche Inc., priority 2006, dated 2009):

Molecular target: T1, human chemokine receptor 2 isoform B (Homo sapiens, UniProt P41597)
T1 construct: host or cells: CHOK1-CCR2B-A5 (CHO-K1)
T1 sequence (P41597 1-360 isoform P41597-2): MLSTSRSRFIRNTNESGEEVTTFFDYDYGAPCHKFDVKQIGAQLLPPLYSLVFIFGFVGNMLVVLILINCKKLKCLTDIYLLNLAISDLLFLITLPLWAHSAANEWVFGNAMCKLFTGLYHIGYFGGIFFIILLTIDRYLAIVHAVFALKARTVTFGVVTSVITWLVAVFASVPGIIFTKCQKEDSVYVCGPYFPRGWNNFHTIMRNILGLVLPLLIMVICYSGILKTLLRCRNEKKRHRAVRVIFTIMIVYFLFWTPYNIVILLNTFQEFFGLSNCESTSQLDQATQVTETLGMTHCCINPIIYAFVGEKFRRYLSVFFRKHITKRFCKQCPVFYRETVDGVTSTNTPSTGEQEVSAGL
Assay: Calcium mobilization assay (FLIPR, CHOK1-CCR2B-A5 cells, 20 nM MCP-1)
Type: cell-based
Settings: Ca mobilisation assay, CCR2, antagonist activity vs 20 nM MCP-1
Outline: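 Antagonism read as IC50 against 20 nM MCP-1-evoked calcium rise (peak minus baseline Fluo-4 signal, FLIPR) in CCR2B-overexpressing CHO-K1 cells. Compounds were preincubated 20-30 min at 30 °C, with agonist activity recorded for 80 s on addition.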

| Compound | IC50 |
| --- | --- |
| Cc1nc(C2CCN(CCCN3CCN(C(=O)/C=C/c4ccc(Cl)c(Cl)c4)CCC3=O)CC2)n[nH]1 [Example 58, 1-[(E)-3-(3,4-Dichloro-phenyl)-acryloyl]-4-{3-[4-(5-methyl-1H-[1,2,4]triazol-3-yl)-piperidin-1-yl]-propyl}-[1,4]diazepan-5-one] | 546 nM |
| C[C@]1(CO)CCN(CCCN2CCN(C(=O)/C=C/c3ccc(F)c(Cl)c3)CCC2=O)C[C@H]1O (racemic) [Example 219] | 45 nM |
| C[C@H]1CCN(CCCN2CCN(C(=O)/C=C/c3ccc(F)c(Cl)c3)CCC2=O)C[C@H]1O [Example 190, 1-[(E)-3-(3-Chloro-4-fluoro-phenyl)-acryloyl]-4-[3-((+, cis)-3-hydroxy-4-methyl-piperidin-1-yl)-propyl]-[1,4]diazepan-5-one] | 118 nM |
| C[C@@H]1CN(CC(O)CN2CCN(C(=O)C=Cc3ccc(Cl)c(Cl)c3)CCC2=O)CC[C@@H]1O (mixture of isomers) [Example 318] | 707 nM |
| CC1C(O)CCCN1CCCN1CCN(C(=O)C=Cc2ccc(F)c(Cl)c2)CCC1=O (mixture of isomers) [Example 208, (rac,trans)-1-[(E)-3-(3-Chloro-4-fluoro-phenyl)-acryloyl]-4-[3-(3-hydroxy-2-methyl-piperidin-1-yl)-propyl]-[1,4]diazepan-5-one] | 780 nM |
| CC(C)CN1CCN(CCCCN2CCN(C(=O)/C=C/c3ccc(Cl)c(Cl)c3)CCC2=O)CC1 [Example 465] | 376 nM |
| CC1CCC(O)CN1CCCN1CCN(C(=O)/C=C/c2ccc(Cl)c(Cl)c2)CCC1=O (racemic) [Example 272] | 191 nM |
| COC1CCCN(CC(O)CN2CCN(C(=O)/C=C/c3ccc(Cl)c(Cl)c3)CCC2=O)C1 (racemic) [Example 283] | 311 nM |
| COCCN1CCN(CCCCN2CCN(C(=O)/C=C/c3ccc(Cl)c(Cl)c3)CCC2=O)CC1 [Example 439] | 263 nM |
| CN(CCCN1CCN(C(=O)/C=C/c2ccc(Cl)c(Cl)c2)CCC1=O)C1CCOCC1 [Example 78, 1-[(E)-3-(3,4-Dichloro-phenyl)-acryloyl]-4-{3-[methyl-(tetrahydro-pyran-4-yl)-amino]-propyl}-[1,4]diazepan-5-one] | 444 nM |
| CC(C)N1CCN(CC(O)CN2CCN(C(=O)/C=C/c3ccc(Cl)c(Cl)c3)CCC2=O)CC1 (racemic) [Example 296] | 298 nM |
| O=C(/C=C/c1ccc(Cl)c(Cl)c1)N1CCC(=O)N(CC[C@H](O)CN2CCCCC2)CC1 [Example 178, 1-[(E)-3-(3,4-Dichloro-phenyl)-acryloyl]-4-((S)-3-hydroxy-4-piperidin-1-yl-butyl)-[1,4]diazepan-5-one] | 201 nM |
| N#CC1CCN(CCCN2CCN(C(=O)/C=C/c3ccc(F)c(Cl)c3)CCC2=O)CC1 [Example 199] | 1340 nM |
| O=C(/C=C/c1cccc(Cl)c1)N1CCC(=O)N(CCN2CCCC2)CC1 [Example 1, 1-[(E)-3-(3-Chloro-phenyl)-acryloyl]-4-(2-pyrrolidin-1-yl-ethyl)-[1,4]diazepan-5-one] | 681 nM |
| COC[C@H]1CCN(CCCCN2CCN(C(=O)/C=C/c3ccc(Cl)c(Cl)c3)CCC2=O)C[C@H]1O (racemic) [Example 469] | 61 nM |
| CC1CCN(CCCN2CCN(C(=O)C=Cc3ccc(Cl)c(F)c3)CCC2=O)CC1O (single isomer, unassigned) [Example 492, 1-[(E)-3-(4-Chloro-3-fluoro-phenyl)-acryloyl]-4-[3-((−,cis)-3-hydroxy-4-methyl-piperidin-1-yl)-propyl]-[1,4]diazepan-5-one] | 26 nM |
| O=C(/C=C/c1ccc(Cl)c(Cl)c1)N1CCC(=O)N(CC(O)CN2CCN(C3CCCC3)CC2)CC1 (racemic) [Example 298] | 281 nM |
| O=C(/C=C/c1ccc(Cl)c(Cl)c1)N1CCC(=O)N(CCCCN2CC[C@H](CO)[C@H](O)C2)CC1 (racemic) [Example 468] | 347 nM |
| O=C(/C=C/c1ccc(Cl)c(Cl)c1)N1CCC(=O)N(CCCCN2CCCC(O)C2)CC1 (racemic) [Example 161, 1-[(E)-3-(3,4-Dichloro-phenyl)-acryloyl]-4-[4-(3-hydroxy-piperidin-1-yl)-butyl]-[1,4]diazepan-5-one] | 47 nM |
| O=C(/C=C/c1cccc(Cl)c1)N1CCC(=O)N(CCN2CCC(c3c[nH]c4cc(F)ccc34)CC2)CC1 [Example 27, 1-[(E)-3-(3-Chloro-phenyl)-acryloyl]-4-{3-[4-(6-fluoro-1H-indol-3-yl)-piperidin-1-yl]-ethyl}-[1,4]diazepan-5-one] | 248 nM |
| CC1(C)CCN(CCCCN2CCN(C(=O)/C=C/c3ccc(Cl)c(F)c3)CCC2=O)CC1O (racemic) [Example 420] | 52 nM |

| Compound | IC50 |
| --- | --- |
| O=C(/C=C/c1ccc(Cl)c(Cl)c1)N1CCC(=O)N(CCCNC2CCCC2)CC1 [Example 36, 4-[3-(Cyclopentyl-amino)-propyl]-1-[(E)-3-(3,4-dichloro-phenyl)-acryloyl]-[1,4]diazepan-5-one] | 725 nM |
| O=C(C=Cc1ccc(Cl)c(Cl)c1)N1CCC(=O)N(CCCNC2CCC(O)(c3ccccn3)CC2)CC1 (stereo not drawn) [Example 65, trans-1-[(E)-3-(3,4-Dichloro-phenyl)-acryloyl]-4-[3-(4-hydroxy-4-pyridin-2-yl-cyclohexylamino)-propyl]-[1,4]diazepan-5-one] | 197 nM |
| CC1C(O)CCCN1CCCCN1CCN(C(=O)C=Cc2ccc(F)c(Cl)c2)CCC1=O (stereo not drawn) [Example 388] | 381 nM |
| CC1CCN(CC(O)CCN2CCN(C(=O)/C=C/c3ccc(Cl)c(Cl)c3)CCC2=O)CC1 (racemic) [Example 377] | 697 nM |
| O=C(/C=C/c1ccc(Cl)c(Cl)c1)N1CCC(=O)N(CCCCN2CCC(O)C3(CC3)C2)CC1 (racemic) [Example 457] | 283 nM |
| COCC1CCCN(CCCCN2CCN(C(=O)/C=C/c3ccc(Cl)c(Cl)c3)CCC2=O)C1 (stereo not drawn) [Example 423] | 16 nM |
| O=C(/C=C/c1ccc(Cl)c(Cl)c1)N1CCC(=O)N(CCCN2CCN(C3CCCC3)CC2)CC1 [Example 242] | 124 nM |
| O=C(/C=C/c1ccc(Cl)c(Cl)c1)N1CCC(=O)N(CCCN2CCCC(CO)C2)CC1 (racemic) [Example 228] | 149 nM |
| O=C(/C=C/c1ccc(Cl)c(Cl)c1)N1CCC(=O)N(CC(O)CN2CCC(O)CC2)CC1 (stereo not drawn) [Example 285] | 644 nM |
| CC(=O)NC1CCN(CC(O)CCN2CCN(C(=O)/C=C/c3ccc(Cl)c(Cl)c3)CCC2=O)CC1 (racemic) [Example 370] | 341 nM |
| CC1(CO)CCCCN1CCCCN1CCN(C(=O)/C=C/c2ccc(F)c(Cl)c2)CCC1=O (racemic) [Example 407] | 264 nM |
| O=C(/C=C/c1ccc(Cl)c(Cl)c1)N1CCC(=O)N(CCCN2CCC(O)(c3ccncc3)CC2)CC1 [Example 53, 1-[(E)-3-(3,4-Dichloro-phenyl)-acryloyl]-4-[3-(4-hydroxy-3,4,5,6-tetrahydro-2H-[4,4′]bipyridinyl-1-yl)-propyl]-[1,4]diazepan-5-one] | 441 nM |
| O=C(/C=C/c1ccc(Cl)c(Cl)c1)N1CCC(=O)N(CC(O)CN2CCC3(CC3)C(O)C2)CC1 (racemic) [Example 309, (rac)-1-[(E)-3-(3,4-Dichloro-phenyl)-acryloyl]-4-[2-hydroxy-3-(4-hydroxy-6-aza-spiro[2.5]oct-6-yl)-propyl]-[1,4]diazepan-5-one] | 16 nM |
| CC1C(O)CCCN1CCCCN1CCN(C(=O)C=Cc2ccc(Cl)c(Cl)c2)CCC1=O (mixture of isomers) [Example 428, (rac,trans)-1-[(E)3-(3,4-Dichloro-phenyl)-acryloyl]-4-[4-(3-hydroxy-2-methyl-piperidin-1-yl)-butyl]-[1,4]diazepan-5-one] | 113 nM |
| O=C(/C=C/c1ccc(Cl)c(Cl)c1)N1CCC(=O)N(CCCN2CCOCC2)CC1 [Example 6, 1-[(E)-3-(3,4-Dichloro-phenyl)-acryloyl]-4-(3-morpholin-4-yl-propyl)-[1,4]diazepan-5-one] | 1310 nM |
| N#CC1(c2ccccc2)CCN(CCN2CCN(C(=O)/C=C/c3ccc(Cl)c(Cl)c3)CCC2=O)CC1 [Example 101, 1-(-3-{4-[(E)-3-(3,4-Dichloro-phenyl)-acryloyl]-7-oxo-[1,4]diazepan-1-yl}-ethyl)-4-phenyl-piperidine-4-carbonitrile] | 1230 nM |
| C[C@@H]1CN(CC(O)CCN2CCN(C(=O)/C=C/c3ccc(Cl)c(Cl)c3)CCC2=O)CC[C@H]1O (mixture of isomers) [Example 372, (rac)-1-[(E)-3-(3,4-Dichloro-phenyl)-acryloyl]-4-[3-hydroxy-4-(trans-4-hydroxy-3-methyl-piperidin-1-yl)-butyl]-[1,4]diazepan-5-one] | 1230 nM |
| CC1CN(CC(O)CCN2CCN(C(=O)/C=C/c3ccc(Cl)c(Cl)c3)CCC2=O)CCC1O (racemic) [Example 358] | 873 nM |
| COCCN(C)CCCN1CCN(C(=O)/C=C/c2ccc(Cl)c(Cl)c2)CCC1=O [Example 41, 1-[(E)-3-(3,4-Dichloro-phenyl)-acryloyl]-4-{3-[(2-methoxy-ethyl)-methyl-amino]-propyl}-[1,4]diazepan-5-one] | 1180 nM |
| O=C(C=Cc1ccc(F)c(Cl)c1)N1CCC(=O)N(CCCN2CCC(F)C(O)C2)CC1 (mixture of isomers) [Example 213, (rac,trans)-1-[(E)-3-(3-Chloro-4-fluoro-phenyl)-acryloyl]-4-[3-(4-fluoro-3-hydroxy-piperidin-1-yl)-propyl]-[1,4]diazepan-5-one] | 421 nM |
| O=C(/C=C/c1ccc(F)c(Cl)c1)N1CCC(=O)N(CCCCN2CCC(O)CC2)CC1 [Example 384] | 334 nM |
